Measurements as given in BindingDB's records for doi:10.1016/j.ejmech.2013.01.009 (Fudan University, 2013).

Biological target: Signal transducer and activator of transcription 3 (Homo sapiens, UniProt P40763)
Assay: Inhibition of STAT3 in IL-6-stimulated human HepG2 cells treated for 1 hr prior to IL-6 challenge measured after 5.5 hrs by luciferase reporter gene assay

Sequence of Signal transducer and activator of transcription 3 (P40763 whole entry): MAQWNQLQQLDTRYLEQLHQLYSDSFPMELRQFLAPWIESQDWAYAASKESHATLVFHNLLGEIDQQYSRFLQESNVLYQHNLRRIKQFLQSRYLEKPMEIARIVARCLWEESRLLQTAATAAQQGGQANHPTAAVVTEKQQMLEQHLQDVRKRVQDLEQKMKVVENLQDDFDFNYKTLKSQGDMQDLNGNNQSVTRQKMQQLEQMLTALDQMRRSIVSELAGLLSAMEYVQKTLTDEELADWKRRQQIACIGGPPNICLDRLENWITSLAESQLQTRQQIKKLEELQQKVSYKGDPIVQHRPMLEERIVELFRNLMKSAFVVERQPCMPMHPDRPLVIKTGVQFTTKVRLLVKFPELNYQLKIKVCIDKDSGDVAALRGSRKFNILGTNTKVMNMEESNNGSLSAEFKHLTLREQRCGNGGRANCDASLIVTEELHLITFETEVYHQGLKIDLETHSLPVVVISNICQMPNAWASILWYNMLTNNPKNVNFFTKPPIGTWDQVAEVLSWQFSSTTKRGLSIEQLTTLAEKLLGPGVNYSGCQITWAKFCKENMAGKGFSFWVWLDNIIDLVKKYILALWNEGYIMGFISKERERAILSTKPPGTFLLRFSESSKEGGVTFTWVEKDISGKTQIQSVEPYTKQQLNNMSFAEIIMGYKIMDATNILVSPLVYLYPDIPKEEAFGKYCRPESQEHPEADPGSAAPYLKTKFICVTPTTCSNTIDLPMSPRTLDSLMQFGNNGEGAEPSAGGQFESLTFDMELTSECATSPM

IC50: 3.57 µM
SMILES: CCC(Sc1nc2ccc(NC(=O)c3ccc(OC)cc3)cc2s1)C(=O)Nc1ccc(Br)cc1 (stereo unspecified)
